Results from patent US20140155397A1, “EMT SIGNATURES AND PREDICTIVE MARKERS AND METHOD OF USING THE SAME” (Board of Regents, priority 2011, published 2014).
Like-named read-outs stand apart in the source and are kept apart here.

Columns and labels:
[1] = molecular target: PDGFRβ (Homo sapiens, UniProt P09619); assay: Protein kinase panel; type: biochemical
From the text: (§1) Purified recombinant AXL kinase was used to screen a library of structures with appropriate drug-like scaffolds to identify potential inhibitors. Hits from the screen were confirmed and r analyzed by selection criteria including Lipinski rules. One pyrrolopyrimidine-based compound was selected for structure-activity relationship efforts. Optimization of this scaffold and subsequent evaluation led to the generation of compound SG1-7079 as the lead candidate inhibitor (FIG. 10). […] SGI-7079 was screened against a panel of protein kinases to determine both selectivity and biochemical potency.

[2] = molecular target: TrkB (Homo sapiens, UniProt Q16620); assay: Protein kinase panel; type: biochemical
From the text: as §1

[3] = molecular target: T1, Tyro3 (Homo sapiens, UniProt Q06418); assay: Protein kinase panel; type: biochemical
T1 sequence (Q06418 41-890): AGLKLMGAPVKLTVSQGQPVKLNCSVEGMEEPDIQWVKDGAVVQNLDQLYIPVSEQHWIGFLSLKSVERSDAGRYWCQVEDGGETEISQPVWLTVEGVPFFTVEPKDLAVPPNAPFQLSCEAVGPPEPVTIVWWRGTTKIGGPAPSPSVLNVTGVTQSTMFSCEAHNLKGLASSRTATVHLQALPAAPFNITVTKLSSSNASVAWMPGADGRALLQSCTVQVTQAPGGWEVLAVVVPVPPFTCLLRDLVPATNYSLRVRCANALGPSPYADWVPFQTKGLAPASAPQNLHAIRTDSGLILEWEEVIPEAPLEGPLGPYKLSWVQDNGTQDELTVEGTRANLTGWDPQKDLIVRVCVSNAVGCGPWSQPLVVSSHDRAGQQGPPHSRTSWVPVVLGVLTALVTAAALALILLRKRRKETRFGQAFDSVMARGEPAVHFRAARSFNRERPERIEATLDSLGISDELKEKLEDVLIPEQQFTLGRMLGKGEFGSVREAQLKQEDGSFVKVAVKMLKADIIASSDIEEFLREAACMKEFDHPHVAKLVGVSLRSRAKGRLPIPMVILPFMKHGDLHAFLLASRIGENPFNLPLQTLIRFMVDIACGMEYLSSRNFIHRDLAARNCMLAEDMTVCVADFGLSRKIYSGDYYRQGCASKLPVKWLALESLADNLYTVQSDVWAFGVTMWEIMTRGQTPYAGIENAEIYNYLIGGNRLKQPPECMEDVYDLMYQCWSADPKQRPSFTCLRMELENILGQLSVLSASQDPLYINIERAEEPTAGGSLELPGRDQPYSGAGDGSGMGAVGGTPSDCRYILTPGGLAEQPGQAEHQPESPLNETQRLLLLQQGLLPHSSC
From the text: as §1

[4] = molecular target: Flt1 (Homo sapiens, UniProt P17948); assay: Protein kinase panel; type: biochemical
From the text: as §1

[5] = molecular target: T2, Flt3 (Homo sapiens, UniProt P36888); assay: Protein kinase panel; type: biochemical
T2 sequence (P36888 27-993): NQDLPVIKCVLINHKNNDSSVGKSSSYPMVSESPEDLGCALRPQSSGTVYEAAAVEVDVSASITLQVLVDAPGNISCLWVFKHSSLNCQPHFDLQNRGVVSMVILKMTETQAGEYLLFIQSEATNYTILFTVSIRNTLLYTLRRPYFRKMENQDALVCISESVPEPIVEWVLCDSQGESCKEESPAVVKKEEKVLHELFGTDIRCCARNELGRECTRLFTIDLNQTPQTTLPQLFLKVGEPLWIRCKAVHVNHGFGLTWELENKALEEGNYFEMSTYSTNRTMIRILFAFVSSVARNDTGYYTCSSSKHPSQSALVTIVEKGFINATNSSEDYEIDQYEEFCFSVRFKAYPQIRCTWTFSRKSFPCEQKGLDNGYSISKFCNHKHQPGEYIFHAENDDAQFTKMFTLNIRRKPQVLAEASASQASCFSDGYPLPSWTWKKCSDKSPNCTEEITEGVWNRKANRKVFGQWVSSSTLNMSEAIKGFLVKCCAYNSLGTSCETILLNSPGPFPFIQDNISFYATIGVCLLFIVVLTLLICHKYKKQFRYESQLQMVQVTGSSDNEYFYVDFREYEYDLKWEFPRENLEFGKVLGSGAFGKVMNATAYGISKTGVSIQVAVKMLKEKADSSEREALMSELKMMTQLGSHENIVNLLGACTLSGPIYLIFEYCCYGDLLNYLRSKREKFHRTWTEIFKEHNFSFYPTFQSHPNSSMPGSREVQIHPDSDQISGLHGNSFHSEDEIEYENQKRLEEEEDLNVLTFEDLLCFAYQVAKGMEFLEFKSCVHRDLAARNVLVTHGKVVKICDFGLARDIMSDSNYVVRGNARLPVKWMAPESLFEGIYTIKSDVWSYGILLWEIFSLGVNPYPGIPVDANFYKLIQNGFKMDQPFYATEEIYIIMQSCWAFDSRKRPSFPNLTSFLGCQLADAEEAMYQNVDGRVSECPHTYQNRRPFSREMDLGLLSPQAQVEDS
From the text: as §1

[6] = molecular target: TrkA (Homo sapiens, UniProt P04629); assay: Protein kinase panel; type: biochemical
From the text: as §1

[7] = molecular target: Ret (Homo sapiens, UniProt P07949); assay: Protein kinase panel; type: biochemical
From the text: as §1

[8] = molecular target: Jak2 (Homo sapiens, UniProt O60674); assay: Protein kinase panel; type: biochemical
From the text: as §1

[9] = molecular target: Syk (Homo sapiens, UniProt P43405); assay: Protein kinase panel; type: biochemical
From the text: as §1

[10] = tested on: Cells expressing high levels of Axl; assay: Proliferation of six mesenchymal cell lines expressing high levels of Axl (summary); type: cell-based; settings: single agent
From the text: Average values were used for analysis as described. […] Chou T. C., et al., Quantitative Analysis of Dose-Effect Relationships: The Combined Effects of Multiple Drugs or Enzyme Inhibitors. Adv Enzyme Regul.

Sequence of Flt1 (P17948 27-1338, species assumed): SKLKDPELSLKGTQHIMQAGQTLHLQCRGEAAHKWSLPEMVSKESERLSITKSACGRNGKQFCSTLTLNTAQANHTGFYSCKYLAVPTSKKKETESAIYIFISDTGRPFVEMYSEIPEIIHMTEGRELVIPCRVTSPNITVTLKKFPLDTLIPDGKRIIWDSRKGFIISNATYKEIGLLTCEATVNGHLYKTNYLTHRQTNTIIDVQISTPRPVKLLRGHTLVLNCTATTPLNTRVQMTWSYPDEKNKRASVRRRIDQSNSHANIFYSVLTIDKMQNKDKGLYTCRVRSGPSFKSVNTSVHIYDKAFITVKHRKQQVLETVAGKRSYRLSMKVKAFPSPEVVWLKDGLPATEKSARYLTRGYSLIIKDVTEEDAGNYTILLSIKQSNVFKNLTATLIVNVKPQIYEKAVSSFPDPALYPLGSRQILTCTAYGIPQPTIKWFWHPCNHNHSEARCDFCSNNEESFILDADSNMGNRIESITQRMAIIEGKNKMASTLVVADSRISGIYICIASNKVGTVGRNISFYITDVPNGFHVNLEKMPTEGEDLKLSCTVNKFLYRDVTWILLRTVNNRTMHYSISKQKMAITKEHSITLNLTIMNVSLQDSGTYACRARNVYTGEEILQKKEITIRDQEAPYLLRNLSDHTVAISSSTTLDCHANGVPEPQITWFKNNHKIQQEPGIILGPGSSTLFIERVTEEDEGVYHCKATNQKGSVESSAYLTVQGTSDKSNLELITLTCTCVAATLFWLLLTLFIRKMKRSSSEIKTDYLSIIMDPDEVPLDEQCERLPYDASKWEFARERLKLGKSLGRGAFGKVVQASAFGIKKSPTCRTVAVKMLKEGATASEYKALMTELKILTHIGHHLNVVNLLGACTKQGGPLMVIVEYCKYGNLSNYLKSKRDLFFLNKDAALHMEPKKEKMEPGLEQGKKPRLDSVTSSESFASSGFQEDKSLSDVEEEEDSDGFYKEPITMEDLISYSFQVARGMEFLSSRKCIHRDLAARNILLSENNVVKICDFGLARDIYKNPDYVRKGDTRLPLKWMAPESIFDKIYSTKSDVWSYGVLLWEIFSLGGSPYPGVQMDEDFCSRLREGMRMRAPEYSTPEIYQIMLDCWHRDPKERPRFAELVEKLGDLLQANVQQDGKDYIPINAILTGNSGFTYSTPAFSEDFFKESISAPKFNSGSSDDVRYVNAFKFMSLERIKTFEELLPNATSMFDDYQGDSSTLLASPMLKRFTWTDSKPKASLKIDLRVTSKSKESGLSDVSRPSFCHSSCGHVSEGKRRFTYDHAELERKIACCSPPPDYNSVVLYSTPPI
Sequence of TrkA (P04629 33-796, species assumed): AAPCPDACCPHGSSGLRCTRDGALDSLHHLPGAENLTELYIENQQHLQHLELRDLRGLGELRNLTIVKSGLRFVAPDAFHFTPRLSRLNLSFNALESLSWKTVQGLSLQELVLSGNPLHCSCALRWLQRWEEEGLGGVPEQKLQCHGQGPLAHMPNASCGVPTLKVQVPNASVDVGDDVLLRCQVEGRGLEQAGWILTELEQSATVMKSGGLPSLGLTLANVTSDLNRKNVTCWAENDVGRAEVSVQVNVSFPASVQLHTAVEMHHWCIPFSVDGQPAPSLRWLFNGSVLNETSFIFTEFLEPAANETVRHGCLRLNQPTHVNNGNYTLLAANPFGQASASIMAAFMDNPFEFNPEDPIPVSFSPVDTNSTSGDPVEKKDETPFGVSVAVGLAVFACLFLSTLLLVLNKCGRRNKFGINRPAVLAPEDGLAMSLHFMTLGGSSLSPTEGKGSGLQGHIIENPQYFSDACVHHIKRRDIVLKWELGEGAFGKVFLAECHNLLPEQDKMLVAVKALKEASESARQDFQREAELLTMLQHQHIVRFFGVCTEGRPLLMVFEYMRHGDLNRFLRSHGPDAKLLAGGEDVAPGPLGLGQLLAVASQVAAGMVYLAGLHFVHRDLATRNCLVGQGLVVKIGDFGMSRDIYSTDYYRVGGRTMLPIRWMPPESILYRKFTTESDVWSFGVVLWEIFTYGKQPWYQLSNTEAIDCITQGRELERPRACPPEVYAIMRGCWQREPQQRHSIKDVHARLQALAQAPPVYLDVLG
Sequence of PDGFRβ (P09619 33-1106, species assumed): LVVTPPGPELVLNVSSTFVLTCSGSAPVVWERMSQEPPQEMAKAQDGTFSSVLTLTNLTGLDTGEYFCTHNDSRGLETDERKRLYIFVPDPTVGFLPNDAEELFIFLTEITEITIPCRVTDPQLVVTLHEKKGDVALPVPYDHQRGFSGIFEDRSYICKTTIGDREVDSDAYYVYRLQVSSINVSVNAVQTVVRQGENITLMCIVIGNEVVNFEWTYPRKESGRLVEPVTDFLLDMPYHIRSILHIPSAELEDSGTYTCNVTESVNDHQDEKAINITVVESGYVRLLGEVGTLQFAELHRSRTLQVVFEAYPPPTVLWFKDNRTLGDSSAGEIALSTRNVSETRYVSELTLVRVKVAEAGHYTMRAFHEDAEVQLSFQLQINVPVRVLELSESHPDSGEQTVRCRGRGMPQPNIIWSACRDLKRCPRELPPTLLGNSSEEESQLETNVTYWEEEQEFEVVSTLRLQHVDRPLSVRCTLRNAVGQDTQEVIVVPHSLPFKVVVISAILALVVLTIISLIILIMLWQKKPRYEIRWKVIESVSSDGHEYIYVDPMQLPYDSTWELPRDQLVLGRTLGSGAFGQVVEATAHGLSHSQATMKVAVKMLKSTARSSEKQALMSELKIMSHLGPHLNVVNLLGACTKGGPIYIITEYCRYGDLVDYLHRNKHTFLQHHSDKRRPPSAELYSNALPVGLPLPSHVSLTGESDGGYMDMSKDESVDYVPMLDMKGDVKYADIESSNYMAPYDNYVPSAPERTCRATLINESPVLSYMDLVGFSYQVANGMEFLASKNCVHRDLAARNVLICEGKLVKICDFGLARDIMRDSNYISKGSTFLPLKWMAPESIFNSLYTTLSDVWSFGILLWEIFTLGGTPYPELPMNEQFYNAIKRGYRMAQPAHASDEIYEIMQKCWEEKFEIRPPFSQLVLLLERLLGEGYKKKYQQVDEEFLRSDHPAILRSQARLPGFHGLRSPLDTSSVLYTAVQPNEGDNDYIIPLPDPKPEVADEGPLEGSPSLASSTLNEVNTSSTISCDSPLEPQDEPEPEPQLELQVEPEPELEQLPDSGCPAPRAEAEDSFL
Sequence of Ret (P07949 29-1114, species assumed): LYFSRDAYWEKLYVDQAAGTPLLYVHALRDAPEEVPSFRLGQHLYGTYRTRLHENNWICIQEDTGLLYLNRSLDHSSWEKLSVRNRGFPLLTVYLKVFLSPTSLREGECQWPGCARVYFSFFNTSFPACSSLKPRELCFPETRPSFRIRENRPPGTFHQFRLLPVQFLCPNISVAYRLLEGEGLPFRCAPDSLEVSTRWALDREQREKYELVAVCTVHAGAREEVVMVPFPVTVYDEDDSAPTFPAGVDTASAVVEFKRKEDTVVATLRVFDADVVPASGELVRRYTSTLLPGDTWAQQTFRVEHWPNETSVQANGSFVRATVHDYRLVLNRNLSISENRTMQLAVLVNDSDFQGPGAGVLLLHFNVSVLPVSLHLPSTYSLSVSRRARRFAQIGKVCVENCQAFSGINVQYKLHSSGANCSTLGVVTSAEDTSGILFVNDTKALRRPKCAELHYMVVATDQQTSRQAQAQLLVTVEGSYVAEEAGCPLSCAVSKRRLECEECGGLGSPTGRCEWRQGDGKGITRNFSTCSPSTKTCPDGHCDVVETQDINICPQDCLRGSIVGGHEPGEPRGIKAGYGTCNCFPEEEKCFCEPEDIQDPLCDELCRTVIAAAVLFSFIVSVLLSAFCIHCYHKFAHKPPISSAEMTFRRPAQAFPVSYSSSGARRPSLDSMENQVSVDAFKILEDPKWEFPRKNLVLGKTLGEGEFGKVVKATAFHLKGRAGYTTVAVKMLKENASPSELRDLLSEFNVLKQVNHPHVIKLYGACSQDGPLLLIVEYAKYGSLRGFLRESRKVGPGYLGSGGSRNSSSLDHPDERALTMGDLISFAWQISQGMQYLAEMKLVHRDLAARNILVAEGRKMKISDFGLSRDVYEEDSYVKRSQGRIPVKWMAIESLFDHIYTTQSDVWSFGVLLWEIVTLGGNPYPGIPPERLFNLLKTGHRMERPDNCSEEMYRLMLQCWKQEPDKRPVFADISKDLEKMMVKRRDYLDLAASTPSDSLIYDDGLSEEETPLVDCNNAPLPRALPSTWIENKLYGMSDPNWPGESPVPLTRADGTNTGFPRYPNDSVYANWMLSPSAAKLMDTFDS
Sequence of TrkB (Q16620 32-822, species assumed): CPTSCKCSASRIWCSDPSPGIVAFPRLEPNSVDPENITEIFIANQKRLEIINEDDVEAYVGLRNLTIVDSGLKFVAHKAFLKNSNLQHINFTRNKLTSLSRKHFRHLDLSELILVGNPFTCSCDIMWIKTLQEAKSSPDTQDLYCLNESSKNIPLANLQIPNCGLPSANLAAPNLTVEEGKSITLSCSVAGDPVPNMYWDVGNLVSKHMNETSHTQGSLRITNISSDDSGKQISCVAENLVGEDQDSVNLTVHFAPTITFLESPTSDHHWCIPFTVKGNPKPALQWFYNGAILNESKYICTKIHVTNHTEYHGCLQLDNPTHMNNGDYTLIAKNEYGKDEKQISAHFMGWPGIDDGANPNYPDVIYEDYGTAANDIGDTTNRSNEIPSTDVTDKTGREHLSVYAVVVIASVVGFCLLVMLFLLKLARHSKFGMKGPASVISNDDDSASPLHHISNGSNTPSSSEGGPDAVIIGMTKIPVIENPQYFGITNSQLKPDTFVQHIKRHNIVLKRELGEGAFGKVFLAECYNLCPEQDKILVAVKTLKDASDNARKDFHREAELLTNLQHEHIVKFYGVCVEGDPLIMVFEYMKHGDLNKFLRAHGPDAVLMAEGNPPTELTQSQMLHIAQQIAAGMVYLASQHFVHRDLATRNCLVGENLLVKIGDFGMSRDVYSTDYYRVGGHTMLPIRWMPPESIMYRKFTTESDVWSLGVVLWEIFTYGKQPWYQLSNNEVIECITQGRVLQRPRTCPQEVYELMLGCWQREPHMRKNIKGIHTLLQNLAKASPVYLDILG

Cc1c[nH]c2nc(Nc3ccc(N4CCN(C)CC4)c(F)c3)nc(-c3cccc(CC#N)c3)c12 [SGI-7079]
Inhibition of PDGFRβ [1]: potent, low nM inhibition | Inhibition of TrkB [2]: potent, low nM inhibition | Inhibition of Tyro3 [3]: similarly as AXL | Inhibition of Flt1 [4]: potent, low nM inhibition | Inhibition of Flt3 [5]: potent, low nM inhibition | Inhibition of TrkA [6]: potent, low nM inhibition | Inhibition of Ret [7]: potent, low nM inhibition | Inhibition of Jak2 [8]: potent, low nM inhibition | Inhibition of Syk [9]: potent, low nM inhibition | IC50 ([10]; read-out: IC50 range across cell lines): 740 to 4290 nM | IC50 ([10]; read-out: Mean IC50 across cell lines): 1300 nM
